Measurements reported in EP2776398B1, “SUBSTITUTED PYRAZOLYL-BASED UREA DERIVATIVES AS VANILLOID RECEPTOR LIGANDS” (Medifron DBT Inc., priority 2011, dated 2013).

Each compound was assayed against T1, vanilloid receptor 1 (VR1/TRPV1 receptor) (Homo sapiens, UniProt Q8NER1) (assay: Functional testing on vanilloid receptor 1: FLIPR Ca2+ influx assay against capsaicin (Cap) in transfected CHO K1 cells (pharmacological method II)). Settings: @ 5µM; human VR1 in CHO K1 cells; capsaicin; relative to maximum inhibition with 10 µM capsazepine; read-out: inhibition (as a percentage), printed in column (f) Ki (human being) [nM] Cap.
T1 construct: expressed in transfected cells; host or cells: CHO K1 cells (ECACC), stably transfected
T1 sequence (Q8NER1 whole entry): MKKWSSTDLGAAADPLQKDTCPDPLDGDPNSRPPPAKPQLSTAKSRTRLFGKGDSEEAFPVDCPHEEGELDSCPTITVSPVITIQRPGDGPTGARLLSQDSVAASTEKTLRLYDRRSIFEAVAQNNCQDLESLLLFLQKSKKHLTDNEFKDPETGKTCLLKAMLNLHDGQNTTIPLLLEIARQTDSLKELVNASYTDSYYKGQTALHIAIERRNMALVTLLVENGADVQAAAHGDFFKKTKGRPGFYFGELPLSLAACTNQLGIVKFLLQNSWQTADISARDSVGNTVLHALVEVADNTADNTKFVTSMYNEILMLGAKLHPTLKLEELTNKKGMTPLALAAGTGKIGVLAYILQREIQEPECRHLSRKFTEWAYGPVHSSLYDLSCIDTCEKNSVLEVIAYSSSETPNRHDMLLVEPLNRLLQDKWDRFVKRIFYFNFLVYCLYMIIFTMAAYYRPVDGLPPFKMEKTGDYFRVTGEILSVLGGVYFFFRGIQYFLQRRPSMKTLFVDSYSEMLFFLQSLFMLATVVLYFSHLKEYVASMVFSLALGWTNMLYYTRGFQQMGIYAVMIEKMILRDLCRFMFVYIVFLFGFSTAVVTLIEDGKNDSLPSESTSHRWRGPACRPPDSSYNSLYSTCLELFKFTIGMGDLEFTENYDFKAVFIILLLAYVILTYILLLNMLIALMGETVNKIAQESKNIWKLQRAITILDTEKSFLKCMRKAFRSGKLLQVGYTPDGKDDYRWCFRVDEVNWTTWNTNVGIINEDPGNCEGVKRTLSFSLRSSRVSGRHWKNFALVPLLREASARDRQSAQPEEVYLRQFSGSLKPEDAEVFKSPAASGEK
Assay type: cell-based
From the text: […]
Wherever (f) Ki (human being) [nM] Cap is given: 100 nM capsaicin.

Compound	inhibition at 5 µM [%]
N#Cc1cccc(-n2nc(C(F)(F)F)cc2CNC(=O)Nc2ccc(CO)c(F)c2)c1 [A85, 1-[[2-(3-Cyano-phenyl)-5-(trifluoromethyl)-2H-pyrazol-3-yl]-methyl]-3-[3-fluoro-4-(hydroxymethyl)-phenyl]-urea]	53

Same assay, conditions: read-out: (f) Ki (human being) [nM] Cap

Compound	Ki [nM]
COCc1cccc(-n2nc(C(F)(F)F)cc2CNC(=O)Nc2ccc(CO)c(F)c2)c1 [A84, 1-[3-Fluoro-4-(hydroxymethyl)-phenyl]-3-[[2-[3-(methoxymethyl)-phenyl]-5-(trifluoromethyl)-2H-pyrazol-3-yl]-methyl]-urea]	53
CN(C)c1cccc(-n2nc(C(F)(F)F)cc2CNC(=O)Nc2ccc(CO)c(F)c2)c1 [A86, 1-[[2-(3-Dimethylamino-phenyl)-5-(trifluoromethyl)-2H-pyrazol-3-yl]-methyl]-3-[3-fluoro-4-(hydroxymethyl)-phenyl]-urea]	25
COc1ccc(-n2nc(C(F)(F)F)cc2CNC(=O)Nc2ccc(CO)c(F)c2)cc1C [A87, 1-[3-Fluoro-4-(hydroxymethyl)-phenyl]-3-[[2-(4-methoxy-3-methyl-phenyl)-5-(trifluoromethyl)-2H-pyrazol-3-yl]-methyl]-urea]	63
CCOc1ccc(C)cc1-n1nc(C(F)(F)F)cc1CNC(=O)Nc1ccc(CO)c(F)c1 [A88, 1-[[2-(2-Ethoxy-5-methyl-phenyl)-5-(trifluoromethyl)-2H-pyrazol-3-yl]-methyl]-3-[3-fluoro-4-(hydroxymethyl)-phenyl]-urea]	86
O=C(NCc1cc(C(F)(F)F)nn1-c1cccc(Cl)c1Cl)Nc1ccc(CO)c(F)c1 [A89, 1-[[2-(2,3-Dichloro-phenyl)-5-(trifluoromethyl)-2H-pyrazol-3-yl]-methyl]-3-[3-fluoro-4-(hydroxymethyl)-phenyl]-urea]	45
COc1c(Cl)cccc1-n1nc(C(F)(F)F)cc1CNC(=O)Nc1ccc(CO)c(F)c1 [A90, 1-[[2-(3-Chloro-2-methoxy-phenyl)-5-(trifluoromethyl)-2H-pyrazol-3-yl]-methyl]-3-[3-fluoro-4-(hydroxymethyl)-phenyl]-urea]	27
COc1ccc(Cl)cc1-n1nc(C(F)(F)F)cc1CNC(=O)Nc1ccc(CO)c(F)c1 [A91, 1-[[2-(5-Chloro-2-methoxy-phenyl)-5-(trifluoromethyl)-2H-pyrazol-3-yl]-methyl]-3-[3-fluoro-4-(hydroxymethyl)-phenyl]-urea]	51
COc1cc(C)cc(-n2nc(C(F)(F)F)cc2CNC(=O)Nc2ccc(CO)c(F)c2)c1 [A92, 1-[3-Fluoro-4-(hydroxymethyl)-phenyl]-3-[[2-(3-methoxy-5-methyl-phenyl)-5-(trifluoromethyl)-2H-pyrazol-3-yl]-methyl]-urea]	19
CCOc1cc(C)cc(-n2nc(C(F)(F)F)cc2CNC(=O)Nc2ccc(CO)c(F)c2)c1 [A93, 1-[[2-(3-Ethoxy-5-methyl-phenyl)-5-(trifluoromethyl)-2H-pyrazol-3-yl]-methyl]-3-[3-fluoro-4-(hydroxymethyl)-phenyl]-urea]	18
COc1c(C)cccc1-n1nc(C(F)(F)F)cc1CNC(=O)Nc1ccc(CO)c(F)c1 [A94, 1-[3-Fluoro-4-(hydroxymethyl)-phenyl]-3-[[2-(2-methoxy-3-methyl-phenyl)-5-(trifluoromethyl)-2H-pyrazol-3-yl]-methyl]-urea]	30
COc1ccc(-n2nc(C(F)(F)F)cc2CNC(=O)Nc2ccc(CO)c(F)c2)cc1F [A95, 1-[3-Fluoro-4-(hydroxymethyl)-phenyl]-3-[[2-(3-fluoro-4-methoxy-phenyl)-5-(trifluoromethyl)-2H-pyrazol-3-yl]-methyl]-urea]	13
CC(C)(C)c1cc(CNC(=O)Nc2ccc(CO)c(Cl)c2)n(-c2cccc(Cl)c2)n1 [A96, 1-[[5-tert-Butyl-2-(3-chlorophenyl)-2H-pyrazol-3-yl]-methyl]-3-[3-chloro-4-(hydroxymethyl)-phenyl]-urea]	2
